Drawing on US9688634B2, “Pest control agent” (priority 2012, dated 2017), this text covers mortality for seven molecules.

Where only a bound is given, the exact number is not on record here.

For one experiment, the system named is Haemaphysalis longicornis. Nature of the experiment: Test for Examining Effect on Haemaphysalis longicornis (Test Example 3). It is filed as in vivo. Conditions: treated plastic vial, young mites, 24 hours after contact, 25° C., dark. The method, then:
Test for Examining Effect on Haemaphysalis longicornis
A solution prepared so that the concentration of each Invention Compound therein was 100 ppm was used to treat a plastic vial. After the liquid chemical was air-dried, young mites were placed in the vial. This vial was allowed to stand under constant dark conditions at 25° C. and a relative humidity of 80-100%. At 24 hours after the contact with the chemical, the number of dead mites was recorded. The mortality (%) was determined using the following calculation formula. […] Mortality (%)=((number of dead ticks)/(number of all ticks))×100
One may read the mortality as the percentage killed. A high value points to fewer survivors. Regarding `C=CCc1cnccc1C#Cc1ccc(C(C)(C)C)cc1` [Compound No. 17, 3-allyl-4-((4-tert-butylphenyl)ethynyl)pyridine], the mortality at 100 ppm is at least 90%.

For a further experiment, the system named is brown rice planthopper. Nature of the experiment: whole plant or invertebrate. Particulars: Oryza sativa, 120 h, immersion treatment of rice seedlings, second- to third-instar nymphs, 5 days after release, 25° C. The format is in vivo.
On to `CC(C)(C)c1ccc(C#Cc2ccncc2Br)cc1` [Compound No. 10, 3-bromo-4-((4-(tert-butyl)phenyl)ethynyl)pyridine], for which the mortality at 200 ppm was at least 90%. With `C=CCc1cnccc1C#Cc1ccc(C(C)(C)C)cc1` [Compound No. 17, 3-allyl-4-((4-tert-butylphenyl)ethynyl)pyridine], the mortality at 200 ppm was at least 90%.

Molecule `COc1cnccc1C#Cc1ccc(C(C)(C)C)cc1` [Compound No. 21, 4-((4-(tert-butyl)phenyl)ethynyl)-3-methoxypyridine] displayed a mortality at 200 ppm of at least 90%. The molecule `CSc1cnccc1C#Cc1ccc(C(C)(C)C)cc1` [Compound No. 26, 4-((4-(tert-butyl)phenyl)ethynyl)-3-(methylthio)pyridine] returned a mortality at 200 ppm of at least 90%.

As for `CC(C)(C)c1ccc(C#Cc2ccncc2N)cc1` [Compound No. 30, 4-((4-(tert-butyl)phenyl)ethynyl)pyridine-3-amine], the mortality at 200 ppm is at least 90%.

`CCCNc1cnccc1C#Cc1ccc(C(C)(C)C)cc1` [Compound No. 32, 4-((4-(tert-butyl)phenyl)ethynyl)-N-propylpyridine-3-amine] gave a mortality at 200 ppm of at least 90%.

For the molecule `CCNc1cnccc1C#Cc1ccc(C(C)(C)C)cc1` [Compound No. 112, 4-((4-tert-butylphenyl)ethynyl)-N-ethylpyridine-3-amine], the mortality at 200 ppm was at least 90%.
